Experimental data: ChEMBL document CHEMBL1201862, “PubChem BioAssay data set” (2004)
Active and inactive are the calls of the source.

Tests used:
[1] = tested on: INS1; assay: beta-cell survival under cytokine stress – INS-1E, ATP luminescence, dry powder, dose response (AID 488844); assay type: functional, cell-based; conditions: Rattus norvegicus
[2] = viability of uninfected HEp-2 cells – cell-based, HTS, cytotoxicity control for RSV inhibitor project, dose response (AID 2410); assay type: functional; conditions: human respiratory syncytial virus
[3] = tested on: Vero; assay: cells; assay type: functional, cell-based; conditions: Chlorocebus sabaeus
[4] = cells
[5] = biological target: Nuclear receptor subfamily 0 group B member 1 (Homo sapiens, UniProt P51843); assay: Luminescence-based cell-based high throughput dose response assay for inhibitors of the orphan nuclear receptor subfamily 0, group B, member 1 (DAX1; NR0B1). [Related pubchem assays (depositor defined):AID504766, AID504790]; assay type: functional
[6] = tested on: HEK293; assay: cells; assay type: functional, cell-based; conditions: Homo sapiens
[7] = Luminescence Cell-Based Dose Confirmation HTS to Identify Activators of 5'UTR Stem-Loop Driven Alpha-Synuclein mRNA Translation in H4 Neuroglioblastoma Cells. [Related pubchem assays: 1829 (Project Summary), 1814 (Primary HTS)]; assay type: functional
[8] = tested on: A-375; assay: proliferation inhibition in MITF-low A375 cells – cell-based, cherry-pick samples, set 2, counter-screen for MITF modulator project, dose response (AID 540335); assay type: functional; conditions: Homo sapiens
[9] = tested on: H4; assay: Luminescence Cell-Based Dose Response HTS to Identify Activators of 5'UTR Stem-Loop Driven Prion Protein mRNA Translation in H4 Neuroglioblastoma Cells. [Related pubchem assays: 1829 (Project Summary), 1814 (Primary HTS)]; assay type: functional; conditions: Homo sapiens
[10] = tested on: A-375; assay: MITF: Counter assay: A375 proliferation Measured in Cell-Based System Using Plate Reader - 2084-03_Inhibitor_Dose_DryPowder_Activity. [Related pubchem assays (depositor defined):AID488944]; assay type: functional; conditions: Homo sapiens
[11] = Luminescence Cell-Based Dose Response HTS to Identify Activators of Luciferase Translation or Activity in H4 […] Cells. [Related pubchem assays: 1829 (Project Summary), 1814 (Primary HTS)]; assay type: functional
[12] = Luminescence Cell-Based Dose Retest to Confirm Inhibitors of Cancer Stem Cells. [Related pubchem assays (depositor defined):AID2717, AID2721]; assay type: functional; conditions: Homo sapiens
[13] = viability loss of HMLE_sh_eGFP cells – cell-based, luminescence, counter-screen for HMLE_sh_ECad selective toxicity project, dose response (AID 463074); assay type: functional, Homo sapiens;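 further: HMLE human mammary epithelial cells expressing control shRNA against eGFP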

Sequence of Nuclear receptor subfamily 0 group B member 1 (P51843 whole entry): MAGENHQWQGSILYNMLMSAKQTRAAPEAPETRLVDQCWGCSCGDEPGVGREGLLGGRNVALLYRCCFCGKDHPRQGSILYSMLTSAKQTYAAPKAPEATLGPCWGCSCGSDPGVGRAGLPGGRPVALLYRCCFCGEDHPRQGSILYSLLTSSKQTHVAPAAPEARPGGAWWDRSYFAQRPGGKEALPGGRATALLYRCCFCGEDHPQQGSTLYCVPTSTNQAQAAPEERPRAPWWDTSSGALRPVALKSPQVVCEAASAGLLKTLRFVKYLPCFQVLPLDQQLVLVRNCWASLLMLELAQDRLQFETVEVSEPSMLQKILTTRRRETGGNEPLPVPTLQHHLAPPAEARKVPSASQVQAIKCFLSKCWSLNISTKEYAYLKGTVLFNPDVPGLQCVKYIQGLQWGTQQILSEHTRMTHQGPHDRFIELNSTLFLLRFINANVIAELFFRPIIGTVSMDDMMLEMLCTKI

COc1ccc(S(=O)(=O)N(C)C[C@@H]2Oc3c(NC(=O)Nc4ccc(F)cc4)cccc3C(=O)N([C@H](C)CO)C[C@H]2C)cc1
AC50 [1]: 41.7 µM (active)

Cc1cccc(NC(=O)C(C)Sc2nc3ccccc3c(=O)n2CCCN2CCOCC2)c1 (stereo not drawn)
CC50 [2]: 30.8 µM (active) | IC50 [3]: 23.4 µM (active) | IC50 [4]: 26.8 µM (active)

Cc1cc(NC(=O)c2cc3cccc([N+](=O)[O-])c3[nH]2)ccc1F
IC50 [5]: > 67.5 µM (inactive) | IC50 [6]: > 67.5 µM (inactive)

Cc1cnn(C(S)=NCCc2ccccc2)c1
EC50 [7]: 27.3 µM (active) | AC50 [8]: > 35 µM (active) | EC50 [9]: > 120 µM (not active) | AC50 [10]: > 35 µM (active) | EC50 [11]: 25.4 µM (active)

O=C(c1cc(-c2ccc(O)cc2)on1)N1CCN(c2ccccc2)CC1
AC50 [12]: 2.89 µM (active) | AC50 [13]: 23.1 µM (active)
